We go through three compounds from publication PMC9939793 (Infection and Drug Resistance, 2023).

In test [1] the target is neuraminidase of A(H1N1)pdm09-S247N isolate (A/NRW/142/2019) (Influenza A virus, UniProt A0A0X9QTS2, S247N). The class given is biochemical.
For test [2], the system named is A(H3N2) PA-I38M isolate (A/Berlin/9/2020). It counts as cell-based, influenza A(H3N2).

As for `CCC(CC)[C@H](NC(C)=O)[C@@H]1[C@H](O)[C@@H](C(=O)O)C[C@H]1N=C(N)N` [Peramivir, peramivir], the IC50 increase entry in test [1] was “up to 7 fold”.
The same measure, in the same setting: under `CC(=O)N[C@H]1[C@H]([C@H](O)[C@H](O)CO)OC(C(=O)O)=C[C@@H]1N=C(N)N` [Zanamivir, zanamivir] stands “up to 7 fold”.
With `COC(=O)OCOc1c2n(ccc1=O)N([C@@H]1c3ccccc3SCc3c1ccc(F)c3F)[C@@H]1COCCN1C2=O` [baloxavir marboxil, Baloxavir marboxil], in test [2], the “reduction of antiviral activity” value is “up to 5 fold”.
